Source: patent publication US8552048B2, “Phosphoramidate alkylator prodrugs for the treatment of cancer” (Threshold Pharmaceuticals, Inc., priority 2006, dated 2013)

Assays:
[1] = Pharmacokinetics in nude mice; type: in vivo; conditions: female, mouse, plasma
[2] = Pharmacokinetics after repeated administration (Q7D×3) to dogs; type: in vivo; conditions: dog; for clearance / half-life / AUC / Cmax / Vd: TH302 in dogs; for half-life: read-out: Half-Life (converted); for Cmax: read-out: Cmax; for Vd: read-out: Vss
From the text: These changes were reversible.

[3] = test system: H460 human non small cell cancer (NSCLC) cells; assay: H460 tumor excision clonogenic assay (surviving fraction) under different oxygen levels; type: in vivo, mice; conditions: single 50 mg/kg i.v., tumors removed 24 h post treatment
Experimental: H460 human non small cell cancer (NSCLC) cells were prepared in 30% or 50% matrigel in PRIM medium. Then 2×10^6 cells suspended in 50% matrigel were implanted subcutaneously in the right flank in 35 mice (0.2 mL/mouse), 0.5×10^6 cells suspended in 30% matrigel were similarly implanted in 30 mice. Mice bearing similar sized tumors, preferably ˜300 mm^3 were selected for TH302 administration. TH302 was formulated in saline and a single dose administered intravenously at 50 mg/kg.
The mice were placed in 95% and 10% O2 chamber for 30 min before the dosing and returned to the chamber for 2 hours immediately after treatment. Twenty-four hours post treatment, tumors were removed. The tumor tissue was minced and obtain single cells were obtained by digesting the minced tissue with an enzyme cocktail for 15 min at 37° C. with stirring, and filtering through a 40 μm sterile mash. Cell numbers were counted by a coulter counter. After a serial dilution, the ells were placed in a 60 or 100 mm Petri dish and incubated at 37° C. for 8 to 10 days for the colonies to form. The colonies were counted after stained with crystal violet (0.25% in 95% ethanol). The plating efficiency (PE) was calculated by dividing the number of colonies formed by the number of cells seeded. The surviving fraction (SF) was calculated by dividing as the PE of treated cells by PE of the cells from saline control.

H460 NSCLC cancer cells = assay: H460 pleural cavity metastatic tumor model; type: in vivo, mice; conditions: TH302 alone Q3D×5, 100 mg/kg, i.v.
Experimental: Metastatic tumors were also grown in mice by injecting H460 NSCLC cancer cells into the pleural cavity. Metastases were observed among other organs in the lungs and ovary. […] Thus, TH302 is effective in treatment of metastatic tumors, when administered alone and in combination with another anti cancer agent.

[4] = Pharmacokinetics in CD-1 mice; type: in vivo; conditions: male, CD-1, mouse, plasma, ip, 50 mg/kg, 50 mg/kg i.p., read-out: terminal half-lives (t1/2)
Experimental: Pharmacokinetic studies were performed in male CD-1 (50 mg/kg i.p. or orally (p.o.)) or female nude mice (50 mg/kg i.v. or i.p.), male Sprague-Dawley rats (1, 5, 20 and 50 mg/kg i.v. and 100 mg/kg, p.o.), beagle dogs (20 mg/kg, i.v.) and cynomologus monkeys (20 mg/kg i.v.). Plasma TH302 concentrations were analyzed using a LC/MS method and the pharmacokinetic parameters computed using a noncompartmental method. Interspecies scaling was performed according to standard methods.

[5] = test system: IGROV1 human ovarian cancer cells; assay: IGROV1 ovarian cancer xenograft; type: in vivo; conditions: 75 mg/kg i.v. Q7D×2
Experimental: Forty nude mice were subcutaneously implanted with IGROV1 human ovarian cancer cells (5×10^6 cells/mouse). The tumor volumes were measured twice weekly starting on day 7. On day 8, tumor volumes reached about 97.7±3.9 mm^3. The mice were randomized in 3 treatment groups that were administered the following: CDDP (4 mg/kg, ip, Q7D×2), CDDP (6 mg/kg, i.p. Q7D×2), and TH302 (75 mg/kg, i.v., Q7D×2). A control group of mice were administered saline. […] Forty five days after the first administration of TH302, tumor growth inhibition was 66%. The tumor growth delay (to 300 mm^3) was 19 days.

[6] = Pharmacokinetics after repeated administration (Q7D×3) to rats; type: in vivo; conditions: rat, plasma; for clearance / AUC / Cmax / half-life / Vd: iv, TH302 in rats; for AUC: read-out: AUC; for Cmax: read-out: Cmax; for half-life: read-out: Half-Life (converted); for Vd: read-out: Vss
Experimental: Each rat received a 30 minute infusion once a week for three weeks (Q7D×3).
Br-IPM being capable of reacting with water and a number of other nucleophiles, for HPLC analysis of Br-IPM, the plasma obtained was frozen and treated with NaF and potassium oxalate.

[7] = in vivo, 16 mg/kg Q7D×3, Day 15
[8] = plasma, intravenous, 4 mg/kg Q7D×3, Day 15
[9] = plasma, intravenous, 8 mg/kg Q7D×3, Day 15
[10] = plasma, intravenous, 16 mg/kg Q7D×3, Day 15

Cn1c(COP(=O)(NCCBr)NCCBr)cnc1[N+](=O)[O-] [TH302]
Vd ([1]; intravenous, 50 mg/kg, read-out: apparent steady-state volume of distribution (Vss)): 0.542 L/kg
clearance ([1]; intravenous, 50 mg/kg, read-out: total body clearance (Cl) (converted)): 72.8 mL/min/kg
half-life ([1]; iv, 50 mg/kg i.v.): 8.2 min
half-life ([1]; po, 50 mg/kg p.o. (so in the source)): 9.7 min
clearance ([2]; in vivo, 4 mg/kg Q7D×3, Day 15): 80.7 mL/min/kg
half-life ([2]; in vivo, 4 mg/kg Q7D×3, Day 15): 16.3 min
clearance ([2]; in vivo, 8 mg/kg Q7D×3, Day 15): 72.5 mL/min/kg
half-life ([2]; in vivo, 8 mg/kg Q7D×3, Day 15): 15.2 min
AUC [2, 7]: 4260 ng·h/mL
clearance [2, 7]: 63.7 mL/min/kg
half-life [2, 7]: 17 min
AUC [2, 8]: 853 ng·h/mL
Cmax [2, 8]: 1580 ng/mL
Vd [2, 8]: 2.1 L/kg
AUC [2, 9]: 1910 ng·h/mL
Cmax [2, 9]: 3650 ng/mL
Vd [2, 9]: 1.78 L/kg
Cmax [2, 10]: 7100 ng/mL
Vd [2, 10]: 1.93 L/kg
AUC at 15 day ([2]; plasma, intravenous, dogs, 8 mg/kg dose of TH302, read-out: drug exposure (AUC of TH302)): ~1910 ng·h/mL
mean surviving fraction (SF) ([3]; mice breathing 10% O2): 2.58%
mean surviving fraction (SF) ([3]; mice breathing 21% O2): 5.76%
mean surviving fraction (SF) ([3]; mice breathing 95% O2): 50.38%
metastatic tumor mass (H460 NSCLC cancer cells): visible reduction in metastatic tumor mass
half-life [4]: 7.9 min
body weight during the treatment period [5]: body weight gain
tumor growth delay (to 300 mm^3) [5]: 19 days
growth inhibition (significance) ([5]; P<0.05): significant growth inhibition
tumor growth inhibition ([5]; forty five days after the first administration): 66%
AUC at 15 day ([6]; intravenous, rats, 25 mg/kg dose of TH302, read-out: drug exposure, AUC of TH302): ~2110 ng·h/mL
clearance ([6]; 12.5 mg/kg Q7D×3, Day 15): 293 mL/min/kg
AUC ([6]; 12.5 mg/kg Q7D×3, Day 15): 699 ng·h/mL
Cmax ([6]; 12.5 mg/kg Q7D×3, Day 15): 1210 ng/mL
half-life ([6]; 12.5 mg/kg Q7D×3, Day 15): 16 min
Vd ([6]; 12.5 mg/kg Q7D×3, Day 15): 8.71 L/kg
clearance ([6]; 25 mg/kg Q7D×3, Day 15): 275 mL/min/kg
AUC ([6]; 25 mg/kg Q7D×3, Day 15): 2110 ng·h/mL
Cmax ([6]; 25 mg/kg Q7D×3, Day 15): 3640 ng/mL
half-life ([6]; 25 mg/kg Q7D×3, Day 15): 18.7 min
Vd ([6]; 25 mg/kg Q7D×3, Day 15): 8.28 L/kg
clearance ([6]; 50 mg/kg Q7D×3, Day 15): 197 mL/min/kg
AUC ([6]; 50 mg/kg Q7D×3, Day 15): 3250 ng·h/mL
Cmax ([6]; 50 mg/kg Q7D×3, Day 15): 5720 ng/mL
half-life ([6]; 50 mg/kg Q7D×3, Day 15): 20.8 min
Vd ([6]; 50 mg/kg Q7D×3, Day 15): 5.84 L/kg
